Experiments:
[1] = biological target: T1, Serine/threonine-protein kinase BRSK1 (Homo sapiens) (UniProt Q8TDC3); test: BRSK1 Invitrogen selectivity data (BI); conditions: Compound concentration 3.0 uM
T1 sequence (whole entry): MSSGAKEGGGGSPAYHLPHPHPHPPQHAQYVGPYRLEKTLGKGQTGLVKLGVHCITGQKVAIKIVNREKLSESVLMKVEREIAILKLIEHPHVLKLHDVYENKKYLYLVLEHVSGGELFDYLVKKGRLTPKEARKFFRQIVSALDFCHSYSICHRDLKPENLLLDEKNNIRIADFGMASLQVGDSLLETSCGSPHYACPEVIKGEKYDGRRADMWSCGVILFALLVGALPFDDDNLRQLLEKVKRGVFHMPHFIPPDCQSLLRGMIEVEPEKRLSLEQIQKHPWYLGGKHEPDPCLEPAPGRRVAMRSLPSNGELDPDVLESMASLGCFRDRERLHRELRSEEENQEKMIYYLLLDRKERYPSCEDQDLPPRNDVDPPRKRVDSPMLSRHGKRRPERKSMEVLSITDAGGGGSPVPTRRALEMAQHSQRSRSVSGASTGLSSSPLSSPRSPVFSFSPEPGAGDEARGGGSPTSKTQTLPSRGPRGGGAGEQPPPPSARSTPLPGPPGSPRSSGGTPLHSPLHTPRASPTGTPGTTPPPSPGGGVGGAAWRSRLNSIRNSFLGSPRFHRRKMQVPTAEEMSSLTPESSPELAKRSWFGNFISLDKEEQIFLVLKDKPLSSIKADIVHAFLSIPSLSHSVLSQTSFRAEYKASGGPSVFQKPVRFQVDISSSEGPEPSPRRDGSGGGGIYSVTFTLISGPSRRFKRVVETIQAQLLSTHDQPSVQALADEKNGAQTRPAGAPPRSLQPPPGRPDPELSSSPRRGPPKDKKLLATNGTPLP

[2] = biological target: T2, Mitogen-activated protein kinase kinase kinase kinase 2 (Homo sapiens) (UniProt Q12851); test: MAP4K2 Invitrogen selectivity data (BI); conditions: Compound concentration 3.0 uM
T2 sequence (whole entry): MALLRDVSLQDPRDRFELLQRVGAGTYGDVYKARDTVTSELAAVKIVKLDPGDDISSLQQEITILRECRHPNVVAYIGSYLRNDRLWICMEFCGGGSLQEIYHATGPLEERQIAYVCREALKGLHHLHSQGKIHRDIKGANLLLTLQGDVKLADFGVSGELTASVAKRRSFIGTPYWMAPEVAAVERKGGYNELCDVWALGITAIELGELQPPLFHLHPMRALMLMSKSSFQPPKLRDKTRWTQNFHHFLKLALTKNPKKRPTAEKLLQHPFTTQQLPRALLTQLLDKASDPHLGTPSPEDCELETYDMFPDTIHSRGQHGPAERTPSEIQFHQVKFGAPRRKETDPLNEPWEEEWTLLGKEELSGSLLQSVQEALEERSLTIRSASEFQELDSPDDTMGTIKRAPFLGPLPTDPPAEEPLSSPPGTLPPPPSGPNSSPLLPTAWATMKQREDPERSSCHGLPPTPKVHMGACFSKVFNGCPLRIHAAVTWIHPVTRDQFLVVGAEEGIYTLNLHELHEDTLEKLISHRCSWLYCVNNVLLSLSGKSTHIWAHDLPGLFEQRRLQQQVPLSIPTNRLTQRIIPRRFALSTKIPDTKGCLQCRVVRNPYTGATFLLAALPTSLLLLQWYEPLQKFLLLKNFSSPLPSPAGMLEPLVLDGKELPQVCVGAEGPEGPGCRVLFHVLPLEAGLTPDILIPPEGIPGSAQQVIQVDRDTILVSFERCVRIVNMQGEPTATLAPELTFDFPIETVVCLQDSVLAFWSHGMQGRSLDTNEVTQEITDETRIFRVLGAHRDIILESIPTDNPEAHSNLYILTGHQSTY

[3] = test system: Tyrosine-protein kinase ABL1 (Homo sapiens), P00519 [E255K]; test: ABL1 E255K Invitrogen selectivity data (BI); conditions: Compound concentration 3.0 uM
[4] = biological target: Thyroid hormone receptor alpha (Rattus norvegicus) (UniProt P63059); test: THYROID HORM Eurofins-Panlabs selectivity data (BI); conditions: Compound concentration 10.0 uM
[5] = biological target: Melanin-concentrating hormone receptor 1 (Homo sapiens) (UniProt Q99705); test: MCH1H_AGON Cerep selectivity data (BI); conditions: filed as agonist, Compound concentration 20.0 uM
[6] = test system: Leucine-rich repeat serine/threonine-protein kinase 2 (Homo sapiens), Q5S007 [G2019S]; test: LRRK2_G2019S Invitrogen selectivity data (BI); conditions: Compound concentration 3.0 uM
[7] = biological target: Glutamate receptor ionotropic, NMDA 1 (Rattus norvegicus) (UniProt P35439); test: NMDAGLSI/RA Eurofins-Panlabs selectivity data (BI); conditions: Compound concentration 10.0 uM
[8] = biological target: Beta-2 adrenergic receptor (Homo sapiens) (UniProt P07550); test: BETA2/HU Eurofins-Panlabs selectivity data (BI); conditions: Compound concentration 10.0 uM
[9] = biological target: Tyrosine-protein kinase receptor UFO (Homo sapiens) (UniProt P30530); test: AXL Invitrogen selectivity data (BI); conditions: Compound concentration 3.0 uM
[10] = biological target: Mitogen-activated protein kinase kinase kinase 11 (Homo sapiens) (UniProt Q16584); test: MAP3K11 Invitrogen selectivity data (BI); conditions: Compound concentration 3.0 uM
[11] = biological target: Somatostatin receptor type 4 (Homo sapiens) (UniProt P31391); test: SST4_HU Cerep selectivity data (BI); conditions: Compound concentration 20.0 uM
[12] = biological target: T3, Tyrosine-protein kinase TXK (Homo sapiens) (UniProt P42681); test: TXK Invitrogen selectivity data (BI); conditions: Compound concentration 3.0 uM
T3 sequence (whole entry): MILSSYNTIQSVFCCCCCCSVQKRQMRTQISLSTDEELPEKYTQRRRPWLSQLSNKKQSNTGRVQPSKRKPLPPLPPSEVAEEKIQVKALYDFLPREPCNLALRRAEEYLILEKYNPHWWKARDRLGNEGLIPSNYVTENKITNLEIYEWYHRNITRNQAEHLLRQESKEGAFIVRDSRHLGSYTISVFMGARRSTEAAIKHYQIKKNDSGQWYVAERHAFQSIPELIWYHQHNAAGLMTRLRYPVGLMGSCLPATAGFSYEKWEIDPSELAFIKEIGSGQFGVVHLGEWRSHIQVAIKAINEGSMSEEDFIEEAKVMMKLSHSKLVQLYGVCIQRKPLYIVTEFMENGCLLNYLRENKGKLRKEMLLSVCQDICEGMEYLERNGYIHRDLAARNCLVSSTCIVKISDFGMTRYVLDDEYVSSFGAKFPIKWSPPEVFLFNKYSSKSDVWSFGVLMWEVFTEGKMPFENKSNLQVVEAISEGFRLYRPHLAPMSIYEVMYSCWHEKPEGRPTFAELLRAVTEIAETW

[13] = biological target: Cyclin-dependent kinase 9 (Homo sapiens) (UniProt P50750); test: CDK9CYCLIN Invitrogen selectivity data (BI); conditions: Compound concentration 3.0 uM
[14] = biological target: Serine/threonine-protein kinase PAK 6 (Homo sapiens) (UniProt Q9NQU5); test: PAK6 Invitrogen selectivity data (BI); conditions: Compound concentration 3.0 uM
[15] = biological target: 5-hydroxytryptamine receptor 2A (Homo sapiens) (UniProt P28223); test: 5HT2AH_AGON Cerep selectivity data (BI); conditions: filed as agonist, Compound concentration 20.0 uM
[16] = biological target: Sodium- and chloride-dependent GABA transporter 1 (Rattus norvegicus) (UniProt P23978); test: GABATRANS/R Cerep selectivity data (BI); conditions: Compound concentration 20.0 uM

Measured: residual activity

Chain of Tyrosine-protein kinase ABL1 (Homo sapiens), P00519 [E255K] (P00519 whole entry E255K): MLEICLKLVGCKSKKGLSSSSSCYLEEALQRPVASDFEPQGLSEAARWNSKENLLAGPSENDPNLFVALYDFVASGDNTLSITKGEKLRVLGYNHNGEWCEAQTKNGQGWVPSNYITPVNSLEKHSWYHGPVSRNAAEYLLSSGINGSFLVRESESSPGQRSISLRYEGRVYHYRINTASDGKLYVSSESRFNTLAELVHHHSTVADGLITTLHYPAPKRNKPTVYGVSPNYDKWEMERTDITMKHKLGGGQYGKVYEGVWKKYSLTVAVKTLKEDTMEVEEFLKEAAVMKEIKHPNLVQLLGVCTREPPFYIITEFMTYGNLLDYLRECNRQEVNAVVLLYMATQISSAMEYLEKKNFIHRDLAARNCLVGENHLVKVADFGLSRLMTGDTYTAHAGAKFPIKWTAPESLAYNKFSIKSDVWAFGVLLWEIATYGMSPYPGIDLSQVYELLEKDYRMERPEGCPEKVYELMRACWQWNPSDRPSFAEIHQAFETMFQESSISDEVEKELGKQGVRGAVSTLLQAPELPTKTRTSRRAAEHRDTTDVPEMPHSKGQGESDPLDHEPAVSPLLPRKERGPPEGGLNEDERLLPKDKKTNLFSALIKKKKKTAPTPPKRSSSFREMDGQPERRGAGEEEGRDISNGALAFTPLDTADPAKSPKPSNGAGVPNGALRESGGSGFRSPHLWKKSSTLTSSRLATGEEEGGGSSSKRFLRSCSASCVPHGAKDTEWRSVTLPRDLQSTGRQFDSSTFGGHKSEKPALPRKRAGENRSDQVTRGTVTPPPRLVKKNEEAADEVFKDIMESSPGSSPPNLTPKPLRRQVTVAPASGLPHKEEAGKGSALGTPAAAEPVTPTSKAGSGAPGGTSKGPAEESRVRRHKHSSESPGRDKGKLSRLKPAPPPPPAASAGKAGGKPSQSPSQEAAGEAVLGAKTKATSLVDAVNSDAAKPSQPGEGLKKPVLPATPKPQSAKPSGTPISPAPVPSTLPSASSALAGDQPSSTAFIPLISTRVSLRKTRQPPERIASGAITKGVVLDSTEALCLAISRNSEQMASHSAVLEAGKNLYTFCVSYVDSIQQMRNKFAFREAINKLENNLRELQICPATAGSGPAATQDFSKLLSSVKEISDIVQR
Chain of Cyclin-dependent kinase 9 (Homo sapiens) (P50750 whole entry): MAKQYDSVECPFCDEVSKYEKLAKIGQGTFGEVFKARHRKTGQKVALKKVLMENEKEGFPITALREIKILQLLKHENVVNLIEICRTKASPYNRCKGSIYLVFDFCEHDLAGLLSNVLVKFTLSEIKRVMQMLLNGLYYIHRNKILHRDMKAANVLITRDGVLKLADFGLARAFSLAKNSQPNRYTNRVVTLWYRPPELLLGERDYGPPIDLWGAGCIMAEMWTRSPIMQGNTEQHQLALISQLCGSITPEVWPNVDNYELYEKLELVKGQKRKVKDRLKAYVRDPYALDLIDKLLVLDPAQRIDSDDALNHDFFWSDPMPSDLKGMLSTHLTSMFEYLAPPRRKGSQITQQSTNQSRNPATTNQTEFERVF
Chain of Leucine-rich repeat serine/threonine-protein kinase 2 (Homo sapiens), Q5S007 [G2019S] (Q5S007 whole entry G2019S): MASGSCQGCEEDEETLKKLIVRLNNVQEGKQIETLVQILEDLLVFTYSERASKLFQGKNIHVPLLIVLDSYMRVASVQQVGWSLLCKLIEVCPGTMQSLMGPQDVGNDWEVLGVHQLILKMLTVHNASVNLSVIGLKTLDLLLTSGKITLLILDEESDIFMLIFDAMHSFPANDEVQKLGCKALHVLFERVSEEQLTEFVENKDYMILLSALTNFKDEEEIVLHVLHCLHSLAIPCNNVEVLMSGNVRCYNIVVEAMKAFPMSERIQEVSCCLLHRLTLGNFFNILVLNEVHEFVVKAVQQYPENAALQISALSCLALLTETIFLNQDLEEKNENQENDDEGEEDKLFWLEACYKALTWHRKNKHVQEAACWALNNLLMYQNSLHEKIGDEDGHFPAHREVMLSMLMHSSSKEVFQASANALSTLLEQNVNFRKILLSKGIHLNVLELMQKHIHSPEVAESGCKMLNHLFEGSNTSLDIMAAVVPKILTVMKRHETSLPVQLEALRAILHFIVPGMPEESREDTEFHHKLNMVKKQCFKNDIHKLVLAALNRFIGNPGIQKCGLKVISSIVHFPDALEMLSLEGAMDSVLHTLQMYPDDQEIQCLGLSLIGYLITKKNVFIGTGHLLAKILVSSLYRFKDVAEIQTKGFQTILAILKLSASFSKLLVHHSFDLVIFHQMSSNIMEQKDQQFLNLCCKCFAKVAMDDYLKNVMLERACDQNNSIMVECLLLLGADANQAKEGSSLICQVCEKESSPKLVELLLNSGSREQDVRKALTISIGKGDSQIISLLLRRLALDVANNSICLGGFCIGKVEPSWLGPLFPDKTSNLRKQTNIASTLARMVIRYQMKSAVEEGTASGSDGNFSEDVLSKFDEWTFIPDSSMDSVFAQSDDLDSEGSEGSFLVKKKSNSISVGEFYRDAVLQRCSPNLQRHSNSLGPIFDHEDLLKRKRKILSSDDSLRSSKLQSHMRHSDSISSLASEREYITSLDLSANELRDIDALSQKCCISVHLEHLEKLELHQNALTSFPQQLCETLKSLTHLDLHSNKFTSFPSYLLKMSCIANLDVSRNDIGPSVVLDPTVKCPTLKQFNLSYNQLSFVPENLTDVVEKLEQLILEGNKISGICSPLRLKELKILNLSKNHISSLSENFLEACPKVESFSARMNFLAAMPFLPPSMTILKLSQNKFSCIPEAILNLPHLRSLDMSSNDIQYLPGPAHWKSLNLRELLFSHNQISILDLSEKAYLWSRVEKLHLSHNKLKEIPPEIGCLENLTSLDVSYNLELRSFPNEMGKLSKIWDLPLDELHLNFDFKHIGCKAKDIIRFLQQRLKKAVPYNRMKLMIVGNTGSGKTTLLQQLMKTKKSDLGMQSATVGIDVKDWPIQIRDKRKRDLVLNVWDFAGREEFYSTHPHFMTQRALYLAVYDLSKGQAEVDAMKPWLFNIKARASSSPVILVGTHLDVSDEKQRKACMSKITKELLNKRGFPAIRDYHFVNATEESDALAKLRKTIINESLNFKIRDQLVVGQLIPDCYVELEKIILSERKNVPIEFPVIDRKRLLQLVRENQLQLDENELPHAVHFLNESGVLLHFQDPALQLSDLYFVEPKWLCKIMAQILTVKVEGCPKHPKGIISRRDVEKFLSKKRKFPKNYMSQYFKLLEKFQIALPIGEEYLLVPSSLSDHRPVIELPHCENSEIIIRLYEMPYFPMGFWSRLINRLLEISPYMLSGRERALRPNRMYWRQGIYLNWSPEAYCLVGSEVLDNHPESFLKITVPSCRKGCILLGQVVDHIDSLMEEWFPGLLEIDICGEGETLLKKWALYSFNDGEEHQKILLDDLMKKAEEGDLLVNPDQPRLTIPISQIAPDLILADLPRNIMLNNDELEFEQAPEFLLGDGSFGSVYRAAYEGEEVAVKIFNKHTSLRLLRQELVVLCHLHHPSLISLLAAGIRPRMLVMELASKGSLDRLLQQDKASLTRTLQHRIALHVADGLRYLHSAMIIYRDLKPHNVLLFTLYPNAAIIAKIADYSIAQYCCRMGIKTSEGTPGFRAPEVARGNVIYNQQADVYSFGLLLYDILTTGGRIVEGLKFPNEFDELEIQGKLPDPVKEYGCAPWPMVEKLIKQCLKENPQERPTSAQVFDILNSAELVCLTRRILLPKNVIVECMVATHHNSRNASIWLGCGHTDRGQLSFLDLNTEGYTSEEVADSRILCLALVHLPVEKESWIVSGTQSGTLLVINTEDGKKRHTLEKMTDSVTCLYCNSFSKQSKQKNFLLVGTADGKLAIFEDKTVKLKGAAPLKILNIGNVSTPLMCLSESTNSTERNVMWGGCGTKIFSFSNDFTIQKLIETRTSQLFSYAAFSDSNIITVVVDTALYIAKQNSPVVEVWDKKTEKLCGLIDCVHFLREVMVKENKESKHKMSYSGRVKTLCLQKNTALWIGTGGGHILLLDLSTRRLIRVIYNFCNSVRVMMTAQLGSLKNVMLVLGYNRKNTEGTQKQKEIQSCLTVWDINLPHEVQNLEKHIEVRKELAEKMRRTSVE
Chain of Thyroid hormone receptor alpha (Rattus norvegicus) (P63059 whole entry): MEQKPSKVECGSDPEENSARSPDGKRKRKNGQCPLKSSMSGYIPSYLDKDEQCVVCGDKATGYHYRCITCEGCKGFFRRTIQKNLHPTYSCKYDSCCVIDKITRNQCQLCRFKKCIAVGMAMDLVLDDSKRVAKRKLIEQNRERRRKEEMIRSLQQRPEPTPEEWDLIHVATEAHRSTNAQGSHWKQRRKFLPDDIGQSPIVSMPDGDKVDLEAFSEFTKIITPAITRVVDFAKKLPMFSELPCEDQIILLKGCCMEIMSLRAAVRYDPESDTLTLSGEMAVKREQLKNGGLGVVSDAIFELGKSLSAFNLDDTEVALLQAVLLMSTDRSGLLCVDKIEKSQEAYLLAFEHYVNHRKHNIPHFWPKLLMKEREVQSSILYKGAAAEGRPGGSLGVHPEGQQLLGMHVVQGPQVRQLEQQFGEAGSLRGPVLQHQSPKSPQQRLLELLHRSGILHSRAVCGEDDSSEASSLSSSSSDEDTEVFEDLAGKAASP
Chain of Beta-2 adrenergic receptor (Homo sapiens) (P07550 whole entry, looked up): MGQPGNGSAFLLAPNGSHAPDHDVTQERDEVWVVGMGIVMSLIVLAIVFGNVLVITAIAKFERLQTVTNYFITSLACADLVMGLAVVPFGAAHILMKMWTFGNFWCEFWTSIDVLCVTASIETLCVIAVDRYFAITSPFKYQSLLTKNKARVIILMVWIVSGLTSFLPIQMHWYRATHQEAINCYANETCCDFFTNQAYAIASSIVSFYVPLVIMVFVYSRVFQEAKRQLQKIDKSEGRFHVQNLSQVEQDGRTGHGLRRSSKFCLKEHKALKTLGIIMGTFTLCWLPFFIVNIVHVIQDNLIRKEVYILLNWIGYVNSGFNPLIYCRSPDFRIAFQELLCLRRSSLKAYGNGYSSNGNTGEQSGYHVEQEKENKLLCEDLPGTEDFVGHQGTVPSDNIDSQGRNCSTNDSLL

CN(C)C(=O)Cn1cc(-c2nc([C@@](C)(c3ccc(-c4cnc(N)nc4)cc3)C3CC3)no2)cn1 [BI 665915]
inactive: [1] 90.5% | [2] 99.5% | [3] 82% | [4] 80% | [5] 116% | [6] 89% | [7] 90% | [8] 101% | [9] 95.5% | [10] 96% | [11] 146% | [12] 95% | [13] 102% | [14] 93.5% | [15] 102% | [16] 96%

Source: ChEMBL document CHEMBL4507276 (2021)
